{
  "source": "paper PMC9519446",
  "about": "“Discovery of an Orally Active Benzoxaborole Prodrug Effective in the Treatment of Chagas Disease in Non-human Primates” (Nature microbiology, 2022)",
  "assay": "NHP health screening: hematology (CBC)",
  "assay_type": "in vivo, rhesus macaques (Macaca mulatta)",
  "conditions": "treated macaques, individual animals",
  "note": "Where “and” joins values, the source holds several entries; their conditions need not be identical. Equal entries are not always repeated.",
  "description": "Under light-anesthesia/sedation, peripheral blood samples were collected from each animal prior to treatment and at 7 time points following. Blood analysis (CBC and serum chemistry assays) and physical exams to evaluate the health of the study animals were performed on each animal prior to the beginning of the study and also at three time points during the treatment protocol (see Supplementary data).",
  "data": [
    {"smiles": "Cc1c(C(=O)N[C@H](C(=O)OCC2CCOCC2)C(C)C)ccc2c1B(O)OC2", "note": "[AN15368]", "values": [
      {"measurement": "Hct", "setting": "mid-dosing bleed", "value": "41.2% and 42.7% and 40.7% and 46.1% and 39.7% and 43.4% and 40% and 40.3% and 41.5% and 41.9% and 42% and 39.6% and 43.3% and 43.7% and 42.6% and 38.2% and 38.9% and 39.9%"},
      {"measurement": "Hgb", "setting": "mid-dosing bleed", "value": "13.1 G/Dl and 14.2 G/Dl and 12.7 G/Dl and 14.6 G/Dl and 12.8 G/Dl and 13.9 G/Dl and 13.4 G/Dl and 13.5 G/Dl and 12.5 G/Dl and 12.6 G/Dl and 14 G/Dl and 13.6 G/Dl and 11.9 G/Dl and 12.9 G/Dl"},
      {"measurement": "Lymp", "setting": "mid-dosing bleed", "value": "3.35 10^3/µL and 4.79 10^3/µL and 3.28 10^3/µL and 5.22 10^3/µL and 2.3 10^3/µL and 2.17 10^3/µL and 3.7 10^3/µL and 4.02 10^3/µL and 5.12 10^3/µL and 2.39 10^3/µL and 2.58 10^3/µL and 3.15 10^3/µL and 3.84 10^3/µL and 2.63 10^3/µL and 2.99 10^3/µL and 4.63 10^3/µL and 1.5 10^3/µL and 2.51 10^3/µL and 3.89 10^3/µL"},
      {"measurement": "Mch", "setting": "mid-dosing bleed", "value": "23.8 Pgs and 22.9 Pgs and 24.1 Pgs and 24.7 Pgs and 24 Pgs and 22.6 Pgs and 24.4 Pgs and 23.9 Pgs and 22.5 Pgs and 23.1 Pgs and 23.3 Pgs and 23.7 Pgs and 22.8 Pgs and 23 Pgs and 22.7 Pgs and 23.6 Pgs"},
      {"measurement": "Mchc", "setting": "mid-dosing bleed", "value": "31.8 G/Dl and 33.3 G/Dl and 31.2 G/Dl and 31.7 G/Dl and 32.2 G/Dl and 32 G/Dl and 32.8 G/Dl and 32.5 G/Dl and 30.8 G/Dl and 32.1 G/Dl and 31.6 G/Dl and 31.9 G/Dl and 33.2 G/Dl and 32.3 G/Dl"},
      {"measurement": "Mcv", "setting": "mid-dosing bleed", "value": "74.9 fL and 68.9 fL and 77.2 fL and 78 fL and 74.5 fL and 70.8 fL and 74.6 fL and 73.8 fL and 72.9 fL and 76.6 fL and 72.2 fL and 76.4 fL and 74.7 fL and 74.4 fL and 71.4 fL and 72.1 fL and 71.2 fL"},
      {"measurement": "Mono", "setting": "mid-dosing bleed", "value": "0.25 10^3/µL and 0.22 10^3/µL and 0.19 10^3/µL and 0.43 10^3/µL and 0.26 10^3/µL and 0.21 10^3/µL and 0.16 10^3/µL and 0.58 10^3/µL and 0.3 10^3/µL and 0.38 10^3/µL and 0.13 10^3/µL and 0.32 10^3/µL and 0.28 10^3/µL and 0.08 10^3/µL and 0.17 10^3/µL and 0.5 10^3/µL"},
      {"measurement": "Mpv", "setting": "mid-dosing bleed", "value": "6.5 fL and 7.2 fL and 7.4 fL and 9.2 fL and 9.1 fL and 6.8 fL and 6.6 fL and 6.7 fL and 7.7 fL and 8.1 fL and 7.9 fL and 7.1 fL and 7.5 fL and 8.8 fL and 8.5 fL"},
      {"measurement": "Neut", "setting": "mid-dosing bleed", "value": "1.09 10^3/µL and 1.04 10^3/µL and 2.08 10^3/µL and 1.9 10^3/µL and 3.38 10^3/µL and 1.51 10^3/µL and 1.78 10^3/µL and 2.28 10^3/µL and 1.12 10^3/µL and 2.03 10^3/µL and 1.69 10^3/µL and 3.43 10^3/µL and 3.82 10^3/µL and 1.6 10^3/µL and 3.07 10^3/µL and 1.17 10^3/µL and 1.61 10^3/µL and 1.53 10^3/µL and 0.96 10^3/µL"},
      {"measurement": "Plt", "setting": "mid-dosing bleed", "value": "354 10^3/µL and 311 10^3/µL and 210 10^3/µL and 266 10^3/µL and 220 10^3/µL and 317 10^3/µL and 438 10^3/µL and 380 10^3/µL and 279 10^3/µL and 251 10^3/µL and 373 10^3/µL and 367 10^3/µL and 434 10^3/µL and 280 10^3/µL and 260 10^3/µL and 432 10^3/µL and 291 10^3/µL and 288 10^3/µL and 306 10^3/µL"},
      {"measurement": "Rbc", "setting": "mid-dosing bleed", "value": "5.5 10^6/µL and 6.2 10^6/µL and 5.27 10^6/µL and 5.91 10^6/µL and 5.33 10^6/µL and 6.13 10^6/µL and 5.36 10^6/µL and 5.46 10^6/µL and 5.69 10^6/µL and 5.47 10^6/µL and 5.82 10^6/µL and 5.18 10^6/µL and 5.8 10^6/µL and 5.32 10^6/µL and 6.12 10^6/µL and 5.24 10^6/µL"},
      {"measurement": "Rdw", "setting": "mid-dosing bleed", "value": "12.8% and 11.9% and 12.5% and 12.1% and 12.7% and 12% and 13.5% and 12.9% and 12.4% and 11.3% and 12.3%"},
      {"measurement": "Wbc", "setting": "mid-dosing bleed", "value": "4.78 10^3/µL and 6.15 10^3/µL and 5.63 10^3/µL and 7.65 10^3/µL and 6 10^3/µL and 3.99 10^3/µL and 5.7 10^3/µL and 7.05 10^3/µL and 6.59 10^3/µL and 4.73 10^3/µL and 4.52 10^3/µL and 7.07 10^3/µL and 8.23 10^3/µL and 4.45 10^3/µL and 6.3 10^3/µL and 3.22 10^3/µL and 4.27 10^3/µL and 5.62 10^3/µL"},
      {"measurement": "Baso", "setting": "post-dosing bleed", "value": "0.01 10^3/µL and 0.02 10^3/µL and 0 10^3/µL and 0.04 10^3/µL and 0.03 10^3/µL"},
      {"measurement": "Eos", "setting": "post-dosing bleed", "value": "0.05 10^3/µL and 0.15 10^3/µL and 0.06 10^3/µL and 0.02 10^3/µL and 0.09 10^3/µL and 0.04 10^3/µL and 0.13 10^3/µL and 0.03 10^3/µL and 0.23 10^3/µL and 0.2 10^3/µL and 0.18 10^3/µL"},
      {"measurement": "Hct", "setting": "post-dosing bleed", "value": "38.2% and 41.9% and 37.7% and 43% and 39.5% and 42.7% and 41% and 42.1% and 39.9% and 41.8% and 40.8% and 39.1% and 40.4% and 43.7% and 37.1% and 39.6% and 41.1%"},
      {"measurement": "Hgb", "setting": "post-dosing bleed", "value": "12.2 G/Dl and 14.1 G/Dl and 12 G/Dl and 13.9 G/Dl and 12.7 G/Dl and 13.1 G/Dl and 13.5 G/Dl and 12.6 G/Dl and 13.4 G/Dl and 12.1 G/Dl and 14 G/Dl and 13 G/Dl and 11.7 G/Dl and 12.9 G/Dl"},
      {"measurement": "Lymp", "setting": "post-dosing bleed", "value": "2.22 10^3/µL and 5.87 10^3/µL and 2.42 10^3/µL and 3.66 10^3/µL and 1.59 10^3/µL and 1.61 10^3/µL and 1.2 10^3/µL and 2.96 10^3/µL and 2.61 10^3/µL and 1.64 10^3/µL and 1.73 10^3/µL and 2.56 10^3/µL and 2.26 10^3/µL and 3.27 10^3/µL and 1.82 10^3/µL and 3.4 10^3/µL and 2.49 10^3/µL and 4.82 10^3/µL"},
      {"measurement": "Mch", "setting": "post-dosing bleed", "value": "24 Pgs and 23.3 Pgs and 24.2 Pgs and 24.8 Pgs and 24.1 Pgs and 22.8 Pgs and 23.6 Pgs and 22.7 Pgs and 25.1 Pgs and 23.5 Pgs and 24.3 Pgs and 23 Pgs and 23.2 Pgs and 23.4 Pgs"},
      {"measurement": "Mchc", "setting": "post-dosing bleed", "value": "31.9 G/Dl and 33.7 G/Dl and 31.8 G/Dl and 32.3 G/Dl and 32.2 G/Dl and 32.6 G/Dl and 32 G/Dl and 32.1 G/Dl and 31.6 G/Dl and 33.3 G/Dl and 32.8 G/Dl and 30.9 G/Dl and 32.4 G/Dl and 31.5 G/Dl and 31.4 G/Dl"},
      {"measurement": "Mcv", "setting": "post-dosing bleed", "value": "74.9 fL and 69.4 fL and 76 fL and 76.5 fL and 75.1 fL and 70 fL and 75.4 fL and 73.3 fL and 71.9 fL and 75.6 fL and 71 fL and 76.1 fL and 75 fL and 71.5 fL and 72 fL and 73.8 fL and 71.1 fL"},
      {"measurement": "Mono", "setting": "post-dosing bleed", "value": "0.18 10^3/µL and 0.32 10^3/µL and 0.21 10^3/µL and 0.33 10^3/µL and 0.22 10^3/µL and 0.38 10^3/µL and 0.54 10^3/µL and 0.11 10^3/µL and 0.26 10^3/µL and 0.1 10^3/µL and 0.28 10^3/µL and 0.15 10^3/µL and 0.34 10^3/µL"},
      {"measurement": "Mpv", "setting": "post-dosing bleed", "value": "6.6 fL and 7.5 fL and 7.4 fL and 10.2 fL and 8.7 fL and 6.9 fL and 7.1 fL and 7 fL and 6.7 fL and 8.3 fL and 8 fL and 6.4 fL and 8.4 fL and 7.2 fL and 6.8 fL"},
      {"measurement": "Neut", "setting": "post-dosing bleed", "value": "3.01 10^3/µL and 0.97 10^3/µL and 0.98 10^3/µL and 1.76 10^3/µL and 2.92 10^3/µL and 2.28 10^3/µL and 2.06 10^3/µL and 3.85 10^3/µL and 1.41 10^3/µL and 3.58 10^3/µL and 1.8 10^3/µL and 3.13 10^3/µL and 5.36 10^3/µL and 1.54 10^3/µL and 2.18 10^3/µL and 3.21 10^3/µL and 2.83 10^3/µL and 2.26 10^3/µL and 1.29 10^3/µL"},
      {"measurement": "Plt", "setting": "post-dosing bleed", "value": "418 10^3/µL and 319 10^3/µL and 265 10^3/µL and 238 10^3/µL and 242 10^3/µL and 283 10^3/µL and 400 10^3/µL and 311 10^3/µL and 246 10^3/µL and 364 10^3/µL and 390 10^3/µL and 478 10^3/µL and 296 10^3/µL and 291 10^3/µL and 431 10^3/µL and 302 10^3/µL and 342 10^3/µL and 357 10^3/µL"},
      {"measurement": "Rbc", "setting": "post-dosing bleed", "value": "5.1 10^6/µL and 6.04 10^6/µL and 4.96 10^6/µL and 5.62 10^6/µL and 5.26 10^6/µL and 6.1 10^6/µL and 5.44 10^6/µL and 5.74 10^6/µL and 5.55 10^6/µL and 5.53 10^6/µL and 5.75 10^6/µL and 5.14 10^6/µL and 5.39 10^6/µL and 6.11 10^6/µL and 5.61 10^6/µL and 5.03 10^6/µL and 5.57 10^6/µL and 5.49 10^6/µL"},
      {"measurement": "Rdw", "setting": "post-dosing bleed", "value": "12.7% and 12.2% and 13% and 12% and 13.5% and 11.7% and 12.6% and 12.5% and 13.3% and 11.9% and 12.9% and 12.4% and 12.3% and 11% and 12.8%"},
      {"measurement": "Wbc", "setting": "post-dosing bleed", "value": "5.48 10^3/µL and 7.33 10^3/µL and 3.67 10^3/µL and 5.82 10^3/µL and 4.76 10^3/µL and 4.2 10^3/µL and 3.7 10^3/µL and 7.52 10^3/µL and 4.16 10^3/µL and 5.51 10^3/µL and 3.69 10^3/µL and 6.15 10^3/µL and 8.14 10^3/µL and 5.08 10^3/µL and 4.41 10^3/µL and 7.03 10^3/µL and 5.73 10^3/µL and 4.11 10^3/µL and 6.68 10^3/µL"}
    ]}
  ]
}
